Experimental data as given in patent publication US20180368404A1, “3-PYRIDYL HETEROBICYCLIC COMPOUND FOR CONTROLLING INVERTEBRATE PESTS” (BASF SE, priority 2014, published 2018).

How the values were obtained:
Assay type in all cases: in vivo
[1] = test system: Cowpea Aphid (Aphis craccivora); experiment: Cowpea aphid spray test on potted cowpea plants; settings: population reduction assessed after 24, 72 and 120 hours, read-out: mortality in comparison with untreated controls
Experimental: If not otherwise specified the test solutions were prepared as follows:
The active compound was dissolved at the desired concentration in a mixture of 1:1 (vol:vol) distilled water: acetone. The test solution was prepared at the day of use and in general at concentrations of ppm (wt/vol).
Potted cowpea plants colonized with 100-150 aphids of various stages were sprayed after the pest population had been recorded. Population reduction was assessed after 24, 72, and 120 hours.

[2] = test system: Silverleaf Whitefly (Bemisia argentifolii, Adult); experiment: Silverleaf whitefly test on sprayed cotton plants; settings: 72 h, 3 days after treatment, read-out: mortality in comparison with untreated controls
Experimental: (§1) The active compounds were formulated in cyclohexanone as a 10,000 ppm solution supplied in 1.3 ml ABgene® tubes. These tubes were inserted into an automated electrostatic sprayer equipped with an atomizing nozzle and they served as stock solutions for which lower dilutions were made in 1:1 (vol:vol) water: acetone. A nonionic surfactant (Kinetic®) was included in the solution at a volume of 0.01% (v/v).
Cotton plants at the cotyledon stage (one plant per pot) were sprayed by an automated electrostatic plant sprayer equipped with an atomizing spray nozzle. The plants were dried in the sprayer fume hood and then removed from the sprayer. Each pot was placed into a plastic cup and 10 to 12 whitefly adults (approximately 3-5 days […]) were introduced. The insects were collected using an aspirator and 0.6 cm, nontoxic Tygon® tubing (R-3603) connected to a barrier pipette tip. The tip, containing the collected insects, was then gently inserted into the soil containing the treated plant, allowing insects to crawl out of the tip to reach the foliage for feeding. Cups were covered with a reusable screened lid (150-micron mesh polyester screen PeCap from Tetko, Inc.). Test plants were maintained in a growth room at 25° C. and 20-40% relative humidity for 3 days, avoiding direct exposure to fluorescent light (24 hour photoperiod) to prevent trapping of heat inside the cup. Mortality was assessed 3 days after treatment, compared to untreated control plants.

[3] = test system: Vetch Aphid (Megoura viciae); experiment: Vetch aphid bean leaf disk microtiter test; settings: foliar, 144 h, leaf disks sprayed with 2.5 μl, 6 days, read-out: mortality in comparison with untreated controls
Experimental: The active compounds were formulated in 3:1 (vol:vol) water: DMSO with different concentrations of formulated compounds.
Bean leaf disks were placed into microtiterplates filled with 0.8% agar-agar and 2.5 ppm OPUS™. The leaf disks were sprayed with 2.5 μl of the test solution and 5 to 8 adult aphids were placed into the microtiter plates which were then closed and kept at 23±1° C. and 50±5% relative humidity under fluorescent light for 6 days. Mortality was assessed on the basis of vital, reproduced aphids. Aphid mortality and fecundity was then visually assessed.

[4] = test system: Green Peach Aphid (Myzus persicae); experiment: Green peach aphid spray test on infested bell pepper plants; settings: 120 h, after 5 days, read-out: mortality in comparison with untreated controls
Experimental: as §1
Bell pepper plants at the first true-leaf stage were infested prior to treatment by placing heavily infested leaves from the main colony on top of the treatment plants. Aphids were allowed to transfer overnight to accomplish an infestation of 30-50 aphids per plant and the host leaves were removed. The infested plants were then sprayed by an automated electrostatic plant sprayer equipped with an atomizing spray nozzle. The plants were dried in the sprayer fume hood, removed, and then maintained in a growth room under fluorescent lighting in a 24 hour photoperiod at 25° C. and 20-40% relative humidity. Aphid mortality on the treated plants, relative to mortality on untreated control plants, was determined after 5 days.

[5] = test system: Cotton Aphid (Aphis gossypii, Mixed Life Stages); experiment: Cotton aphid spray test on infested cotton plants; settings: 120 h, after 5 days, read-out: mortality in comparison with untreated controls
Experimental: as §1
Cotton plants at the cotyledon stage were infested with aphids prior to treatment by placing a heavily infested leaf from the main aphid colony on top of each cotyledon. Aphids were allowed to transfer overnight to accomplish an infestation of 80-100 aphids per plant and the host leaf was removed. The infested plants were then sprayed by an automated electrostatic plant sprayer equipped with an atomizing spray nozzle. The plants were dried in the sprayer fume hood, removed from the sprayer, and then maintained in a growth room under fluorescent lighting in a 24-hr photoperiod at 25° C. and 20-40% relative humidity. Aphid mortality on the treated plants, relative to mortality on untreated control plants, was determined after 5 days.

[6] = test system: Orchid thrips (Dichromothrips corbetti); experiment: Orchid thrips petal dip test; settings: petals dipped, after 72 hours, read-out: mortality in comparison with untreated controls
Experimental: The active compounds were formulated as a 1:1 (vol:vol) water: acetone solution. Surfactant (Alkamuls EL 620) was added at the rate of 0.1% (vol/vol). Vanda orchids petals were cleaned, washed and air dried prior to spraying. Petals were dipped into the test solution for 3 seconds, air dried, placed inside a resealable plastic and inoculated with 20 adults. The treated petals were kept inside the […] room at 28-29° C. and relative humidity of 50-60%. Percent mortality was recorded after 72 hours.

COc1ccc2nc(-c3cccnc3)oc2c1 [I-1, 6-methoxy-2-(3-pyridyl)-1,3-benzoxazole]
≥ 75%: mortality at 500 ppm [1]

COc1ccc2nn(-c3cccnc3)cc2c1 [I-B4, 5-methoxy-2-(3-pyridyl)indazole]
≥ 75%: mortality at 300 ppm [2]

CCOCCSc1ccc2nn(-c3cccnc3)cc2c1 [I-B5, 5-(2-ethoxyethylsulfanyl)-2-(3-pyridyl)indazole]
≥ 75%: mortality at 500 ppm [1] | mortality at 800 ppm [3]

CCOCCSc1cccc2nn(-c3cccnc3)cc12 [I-C1, 4-(2-ethoxyethylsulfanyl)-2-(3-pyridyl)indazole]
≥ 75%: mortality at 300 ppm [4] | mortality at 500 ppm [1] | mortality at 300 ppm [2] | mortality at 300 ppm [5] | mortality at 800 ppm [3]

CCOCCSc1ccc2nn(-c3cccnc3)cc2n1 [I-D16, 5-(2-ethoxyethylsulfanyl)-2-(3-pyridyl)pyrazolo[4,3-b]pyridine]
≥ 75%: mortality at 300 ppm [4] | mortality at 300 ppm [5] | mortality at 800 ppm [3]

CCOCC[S+]([O-])c1ccc2nn(-c3cccnc3)cc2n1 (centres unmarked) [I-D39, 5-(2-ethoxyethylsulfinyl)-2-(3-pyridyl)pyrazolo[4,3-b]pyridine]
≥ 75%: mortality at 300 ppm [4] | mortality at 300 ppm [2] | mortality at 300 ppm [5] | mortality at 800 ppm [3]

CCOCCS(=O)(=O)c1ccc2nn(-c3cccnc3)cc2n1 [I-D46, 5-(2-ethoxyethylsulfonyl)-2-(3-pyridyl)pyrazolo[4,3-b]pyridine]
≥ 75%: mortality at 300 ppm [4] | mortality at 300 ppm [2] | mortality at 300 ppm [5] | mortality at 800 ppm [3]

COc1ccc2nn(-c3cccnc3)cc2n1 [I-D57, 5-methoxy-2-(3-pyridyl)pyrazolo[4,3-b]pyridine]
≥ 75%: mortality at 300 ppm [4] | mortality at 500 ppm [1] | mortality at 300 ppm [2] | mortality at 300 ppm [5] | mortality at 800 ppm [3]

CC(C)(COc1ccc2nn(-c3cccnc3)cc2n1)S(C)(=O)=O [I-D59, 5-(2-methyl-2-methylsulfonyl-propoxy)-2-(3-pyridyl)pyrazolo[4,3-b]pyridine]
≥ 75%: mortality at 300 ppm [4] | mortality at 500 ppm [6] | mortality at 500 ppm [1] | mortality at 300 ppm [2] | mortality at 300 ppm [5] | mortality at 800 ppm [3]

FC(F)(F)COc1ccc2nc(-c3cccnc3)cn2n1 [I-E14, 2-(3-pyridyl)-6-(2,2,2-trifluoroethoxy)imidazo[1,2-b]pyridazine]
≥ 75%: mortality at 300 ppm [4] | mortality at 300 ppm [2] | mortality at 300 ppm [5] | mortality at 800 ppm [3]

COc1ccc2nc(-c3cccnc3)sc2n1 [I-H4, 5-methoxy-2-(3-pyridyl)thiazolo[5,4-b]pyridine]
≥ 75%: mortality at 500 ppm [1]

COc1ccc2nc(-c3cccnc3)oc2n1 [I-K1, 5-methoxy-2-(3-pyridyl)oxazolo[5,4-b]pyridine]
≥ 75%: mortality at 300 ppm [4] | mortality at 500 ppm [1] | mortality at 300 ppm [2] | mortality at 300 ppm [5] | mortality at 800 ppm [3]
